The values that follow come from ChEMBL document CHEMBL5126609, “Design, Synthesis, and Pharmacological Evaluation of Benzimidazolo-thiazoles as Potent CXCR3 Antagonists with Therapeutic Potential in Autoimmune Diseases: Discovery of ACT-672125” (J Med Chem, 2022).

Converted amounts (≈) assume the structure as drawn.

A short description of data set [1]: Unbound fraction in mouse plasma by equilibrium based LC-MS/MS analysis.
Data set [2] has as its target T1, C-X-C chemokine receptor type 3 (Homo sapiens, UniProt P49682).
T1 sequence (P49682 whole entry): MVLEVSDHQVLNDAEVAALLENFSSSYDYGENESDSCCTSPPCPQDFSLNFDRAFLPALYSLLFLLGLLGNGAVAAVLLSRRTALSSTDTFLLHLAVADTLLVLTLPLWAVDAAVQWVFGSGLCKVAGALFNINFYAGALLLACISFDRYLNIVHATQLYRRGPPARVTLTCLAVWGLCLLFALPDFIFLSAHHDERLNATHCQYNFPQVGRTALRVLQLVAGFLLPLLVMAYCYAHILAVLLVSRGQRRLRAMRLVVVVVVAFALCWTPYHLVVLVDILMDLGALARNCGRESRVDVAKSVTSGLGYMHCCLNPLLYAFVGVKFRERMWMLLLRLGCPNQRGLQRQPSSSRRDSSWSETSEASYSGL
Description: Antagonist activity at human recombinant CXCR3 expressed in CHO-K1 cells measured after 10 mins in presence of CXCL10 by FLIPR analysis.

A short description of data set [3]: Solubility of the compound in FeSSIF. As to conditions: simulated gi fluid.
In data set [4] the target is T1, C-X-C chemokine receptor type 3. Description: Antagonist activity at human recombinant CXCR3 in human venous blood assessed as receptor internalization measured for 30 mins in presence of CXCL10 by flow cytometric analysis. In general terms: A flow cytometer gives signals particle by particle.
Data set [5] can be described thus: in vivo. As to conditions: Balb/c, mouse, po, 10 mg/kg.
Data set [6] in a line: in vivo. As to conditions: Balb/c, mouse, po, 10 mg/kg. This is another data set of the same source.
The nature of data set [7]: Lipophilicity, log D of the compound at pH 7.4. As to conditions: buffer.
Data set [8] can be described thus: in vitro. As to conditions: mouse, microsomes.
The target of a further data set is hERG (KCNH2) (Homo sapiens, UniProt Q12809). Description: Inhibition of hERG expressed in CHO cells at 3 uM at -80 mV holding potential assessed as current block incubated for 3 mins by Qpatch clamp method relative to control. A general note: hERG is a cardiac potassium channel; its block is linked to QT prolongation.
A short description of data set [9]: in vivo. As to conditions: Balb/c, mouse, po, 10 mg/kg. The source holds these as a separate data set.
Data set [10] can be described thus: Apparent permeability across apical to basolateral side in MDCK1 cells by LC-MS/MS analysis. As to conditions: dog, MDCK.
The nature of data set [11]: in vitro. As to conditions: human, microsomes.
Data set [12] is described as follows: in vivo. As to conditions: Wistar, rat, po, 2 mg/kg.
Data set [13] is described as follows: Solubility of the compound in FaSSIF. As to conditions: simulated gi fluid.
Data set [14] in a line: Unbound fraction in human plasma by equilibrium based LC-MS/MS analysis.
A short description of data set [15]: in vitro. As to conditions: rat, microsomes.
The nature of data set [16]: in vivo. As to conditions: Wistar, rat, po, 2 mg/kg. This is another data set of the same source.
Data set [17] can be described thus: Unbound fraction in rat plasma by equilibrium based LC-MS/MS analysis.
Data set [18] in a line: in vivo. As to conditions: Wistar, rat, po, 2 mg/kg. This is another data set of the same source.
Data set [19] is described as follows: Half life in Wistar rat at 0.5 mg/kg, iv. As to conditions: in vivo.
The nature of data set [20]: Clearance in Wistar rat at 2 mg/kg, po. As to conditions: in vivo.
Data set [21] is described as follows: Half life in Wistar rat at 0.2 mg/kg, iv. As to conditions: in vivo.
Data set [22] in a line: Half life in Balb/c mouse at 1 mg/kg, iv. As to conditions: in vivo.
Data set [23] concerns the target Voltage-gated inwardly rectifying potassium channel KCNH2 (Homo sapiens, UniProt Q12809). Description: Inhibition of hERG by Qpatch-clamp method.
Data set [24] can be described thus: Clearance in Balb/c mouse at 10 mg/kg, po. As to conditions: in vivo.

hERG (KCNH2), sequence (Q12809 whole entry): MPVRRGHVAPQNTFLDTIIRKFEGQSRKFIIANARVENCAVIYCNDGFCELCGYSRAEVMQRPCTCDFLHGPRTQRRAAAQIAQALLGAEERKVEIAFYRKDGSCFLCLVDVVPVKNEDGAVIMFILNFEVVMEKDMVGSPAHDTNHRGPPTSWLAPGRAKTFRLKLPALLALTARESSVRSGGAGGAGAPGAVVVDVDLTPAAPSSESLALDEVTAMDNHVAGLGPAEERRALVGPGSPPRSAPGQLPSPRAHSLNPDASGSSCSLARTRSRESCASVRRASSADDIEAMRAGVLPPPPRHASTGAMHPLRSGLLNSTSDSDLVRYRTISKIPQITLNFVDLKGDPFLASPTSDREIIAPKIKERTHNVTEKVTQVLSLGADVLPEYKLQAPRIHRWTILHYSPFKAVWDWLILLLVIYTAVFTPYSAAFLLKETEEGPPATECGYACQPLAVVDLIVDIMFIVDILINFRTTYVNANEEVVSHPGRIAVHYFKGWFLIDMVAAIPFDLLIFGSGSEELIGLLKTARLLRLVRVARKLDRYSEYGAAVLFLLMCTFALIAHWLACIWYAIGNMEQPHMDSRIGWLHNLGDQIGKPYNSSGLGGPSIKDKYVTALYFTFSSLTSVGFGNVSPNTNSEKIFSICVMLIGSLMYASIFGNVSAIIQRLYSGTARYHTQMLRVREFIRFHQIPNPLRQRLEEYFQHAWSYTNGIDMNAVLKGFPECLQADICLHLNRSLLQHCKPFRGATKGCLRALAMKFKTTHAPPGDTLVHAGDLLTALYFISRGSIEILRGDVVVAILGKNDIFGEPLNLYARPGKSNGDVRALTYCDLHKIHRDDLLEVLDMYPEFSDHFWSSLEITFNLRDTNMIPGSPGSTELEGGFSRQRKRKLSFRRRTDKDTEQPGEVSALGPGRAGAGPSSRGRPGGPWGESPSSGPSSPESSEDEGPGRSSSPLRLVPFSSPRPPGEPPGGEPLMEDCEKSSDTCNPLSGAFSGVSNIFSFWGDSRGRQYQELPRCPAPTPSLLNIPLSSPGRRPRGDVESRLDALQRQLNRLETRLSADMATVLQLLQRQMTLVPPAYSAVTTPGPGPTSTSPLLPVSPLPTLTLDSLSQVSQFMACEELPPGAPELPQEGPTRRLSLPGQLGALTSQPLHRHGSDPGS
Voltage-gated inwardly rectifying potassium channel KCNH2, sequence (Q12809 whole entry): as above

The fraction unbound is free concentration divided by total concentration. A higher fraction unbound goes with much free substance. Broadly, the IC50 is the concentration at which inhibition is half-maximal. One may read the solubility as the dissolved amount per volume that the medium holds. Read a low solubility as little dissolved substance. Usually Cmax stands for the maximum level reached in the sampled fluid or tissue. By Tmax is commonly meant the time from dosing to the highest level. What is called logD is the decadic logarithm of the distribution of all forms, ionised or not, between an organic phase and buffer at a given pH. By microsomal CLint is commonly meant a measure of how fast metabolising enzymes remove a compound, apart from limits set by blood flow. As usually defined, the inhibition is the change of the read-out against control, counted positive when it falls. Broadly, the AUC is concentration integrated over time. Read a high AUC as high exposure. For orientation: Papp A→B means the apparent permeability from the apical to the basolateral side of a cell layer. In data set [1], `Cc1nc(C)n(CC(=O)N2CCN(c3sc(C(F)(F)F)nc3-c3nc4c(F)cccc4[nH]3)C[C@H]2C)n1` yielded a fraction unbound of 0.014. Further, the IC50 in data set [2] amounted to 3.1 nM; in [4] it was 321 nM. The solubility in [3] was 750 µg/mL (≈ 1440 µM). In the data set “in vivo [5]”, the concentration peaked (Cmax) at 7010 ng/mL. Also, the Tmax in “in vivo [6]” was determined as 15 min. Also, the logD in data set [7] is 3.6. Besides, the microsomal CLint at 0.25 h, 1 µM in “in vitro [8]” worked out at 25 µL/min/mg; in “in vitro [11]”, 24 µL/min/mg. Further, the inhibition at 0.05 h, 3 µM at hERG (KCNH2) came to 45%. Further, the AUC in “in vivo [9]” amounted to 41500 ng·h/mL. In data set [10], the Papp A→B was 8.5 ×10⁻⁶ cm/s.
What is called bioavailability is dose-corrected exposure relative to a reference, in per cent. Low readings indicate poor availability, high ones good availability. One may read the half-life as the time needed for the level to fall by half in the phase considered. Higher therefore signals slow loss. For orientation: CL/F means clearance divided by bioavailability, as obtained after extravascular dosing. For the compound `Cc1nc(C)n(CC(=O)N2CCN(c3sc(C(F)(F)F)nc3-c3nc4ccccc4[nH]3)C[C@H]2C)n1`, the fraction unbound in data set [1] is 0.041; in data set [14], 0.113; in [17], 0.074. The compound also returned a bioavailability in “in vivo [12]” of 0.5%. Besides, the results for the solubility in data set [13] and in data set [3] were 440 µg/mL (≈ 872 µM) and above 850 µg/mL, respectively. The IC50 came out at 3.2 nM in data set [2] and 237 nM in data set [4]. Also, the peak level in the data set “in vivo [5]” (Cmax) was 5090 ng/mL. For the same compound, the Tmax in the data set “in vivo [6]” and in the data set “in vivo [16]” was 30 min in each case. In addition, the microsomal CLint at 0.25 h, 1 µM in “in vitro [15]” is 39 µL/min/mg; in the data set “in vitro [8]”, 21 µL/min/mg; in the data set “in vitro [11]”, 30 µL/min/mg. Also, the logD in data set [7] was determined as 3.3. For the same compound, on hERG (KCNH2), the inhibition at 0.05 h, 3 µM turned out to be 45%. Besides, the values for the AUC in the data set “in vivo [9]” and in the data set “in vivo [18]” were 10800 ng·h/mL and 2970 ng·h/mL, respectively. Besides, the apparent permeability from apical to basolateral (Papp A→B) in data set [10] was determined as 12 ×10⁻⁶ cm/s. This compound gave a half-life in data set [19] of 180 min. In [20], this compound yielded a CL/F of 6 mL/min/kg.
On to `COc1cc2nc(-c3nc(C(F)(F)F)sc3N3CCN(C(=O)Cn4cnc5cccnc54)[C@H](C)C3)[nH]c2cc1OC`, for which the bioavailability in “in vivo [12]” came out at 29%. Further, the IC50 amounted to 3.2 nM in data set [2] and 144 nM in [4]. In data set [3], this compound gave a solubility of 731 µg/mL (≈ 1250 µM). Further, the results for the microsomal CLint at 0.25 h, 1 µM in the data set “in vitro [15]” and in “in vitro [11]” were 53 µL/min/mg and 30 µL/min/mg, respectively. Also, the Tmax in “in vivo [16]” worked out at 30 min. The inhibition at 0.05 h, 3 µM on hERG (KCNH2) was found to be 20%. This compound had a half-life in data set [21] of 30 min. The compound further showed a fraction unbound in data set [17] of 0.042. Also, the AUC in “in vivo [18]” was found to be 196 ng·h/mL. The CL/F in data set [20] was 49 mL/min/kg.
For the compound `C[C@@H]1CN(c2sc(C(F)(F)F)nc2-c2nc3ccccc3[nH]2)CCN1C(=O)Cn1cnc2cccnc21`, the half-life in data set [22] was 13.2 min. The fraction unbound in [1] came to 0.01; in data set [14], 0.023; in data set [17], 0.017. Further, the solubility in data set [13] was 13 µg/mL (≈ 24.7 µM); in data set [3], 214 µg/mL (≈ 406 µM). In “in vivo [5]”, this compound displayed a Cmax of 27900 ng/mL. In addition, the microsomal CLint at 0.25 h, 1 µM is 104 µL/min/mg in “in vitro [15]”, 104 µL/min/mg in the data set “in vitro [8]” and 89 µL/min/mg in the data set “in vitro [11]”. Moreover, the logD in [7] turned out to be 3.9. In addition, on hERG (KCNH2), the inhibition at 0.05 h, 3 µM was 70%. The same compound gave an IC50 in [23] of 1400 nM. Also, the CL/F in [24] is 41 mL/min/kg.
